The subject of test [1] is ASPC1 pancreatic adenocarcinoma cells [homozygous G12D]. Nature of the test: Cancer cell line proliferation (CellTiter-Glo), ASPC1. The class given is cell-based. To be noted: 72 hr treatment, read-out: ASPC-1 CTG (EC50). An outline of the steps: (§1)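 EC50 values come from CellTiter-Glo viability measured after 72 hr compound treatment at 37° C./5% CO2 with 0.5% final DMSO. Plating was at 4,000 cells/well with 72 hr growth before dosing, and compounds were serially diluted 3-fold from 20 μM down to 1.02 nM.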
A general note: ATP-based viability assays read luminescence as a measure of living cells.

Test [2] concerns A-427 lung carcinoma cells [heterozygous G12D]. Nature of the test: Cancer cell line proliferation (CellTiter-Glo), A-427. To be noted: A-427 cells, 72 hr treatment, read-out: A427 CTG (EC50). The class given is cell-based. An outline of the steps: as §1
Test [3] has as its system AGS gastric carcinoma cells [heterozygous G12D]. Nature of the test: Cancer cell line proliferation (CellTiter-Glo), AGS. The class given is cell-based. To be noted: 72 hr treatment, read-out: AGS CTG (EC50). The gist of the method:
as §1

The subject of test [4] is SW1990 pancreatic adenocarcinoma cells [homozygous G12D]. Nature of the test: Cancer cell line proliferation (CellTiter-Glo), SW1990. Type of test: cell-based. To be noted: Homo sapiens, 72 hr treatment, read-out: SW1990 CTG (EC50). An outline of the steps:
as §1

The target of a further test is T1, KRAS(G12D)/SOS1 (Homo sapiens, UniProt P01116, G12D).
T1 construct: purchased Cisbio 63ADK000CB17PEH
The test can be described thus: KRAS(G12D)/SOS1 homogeneous time-resolved fluorescence (HTRF) assay. The class given is binding. To be noted: absence of GTP; 4° C., 3 hr. An outline of the steps:
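HTRF kit assay of compound-blocked KRAS(G12D)–SOS1 interaction, run without GTP. Compounds were tested as 3-fold dilutions from 20 µM to 1.02 nM and incubated with the reaction components for 3 hr at 4 °C, sealed. IC50 was taken as the concentration giving 50% of maximal inhibition.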
A general note: In TR-FRET formats the signal depends on donor and acceptor labels being close together.

This passage reports EC50 and IC50 results from patent US20260070929A1, “METHODS AND COMPOSITIONS FOR MODULATING KRAS(G12D)” (Ranok Therapeutics (Hangzhou) Co. LTD., priority 2022, published 2026).

pEC50, pIC50: −log10 of the molar value. Like-named read-outs stand apart in the source and are kept apart here. Where only a bound is given, the exact number is not on record here.

As a reminder, the pEC50 is the EC50 on a negative log10 scale, so that one unit is a factor of ten. As usually defined, the pIC50 is −log10 of the IC50, conventionally taken in molar units.

T1 sequence (P01116 1-188 isoform P01116-2 G12D): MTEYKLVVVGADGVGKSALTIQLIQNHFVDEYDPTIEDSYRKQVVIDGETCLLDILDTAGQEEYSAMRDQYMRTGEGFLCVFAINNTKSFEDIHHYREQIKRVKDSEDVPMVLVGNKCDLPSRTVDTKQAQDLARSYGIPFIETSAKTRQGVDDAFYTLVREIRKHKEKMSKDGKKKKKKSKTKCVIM

Regarding `C#Cc1cccc2cc(O)cc(-c3ncc4c(N5CC6CCC(C5)N6C(C)=O)nc(OCC5(CN6CCN(CC7CCN(Cc8ccc9c(c8)CN(C(=O)c8cc(C(C)C)c(O)cc8O)C9)CC7)CC6)CC5)nc4c3F)c12` [Compound 151], the pEC50 in test [1] (Homo sapiens, ASPC1, 72 h) was 6.00 to 7.00; in test [2] (Homo sapiens), 6.00 to 7.00; in test [3] (Homo sapiens), 6.00 to 7.00; in test [4] it was 6.00 to 7.00. Also, the negative logarithm of the IC50 (pIC50) at KRAS(G12D)/SOS1 is > 7.00.
For the compound `C#Cc1cccc2cc(O)cc(-c3ncc4c(N5CC6CCC(C5)N6)nc(OCC5(CN6CCN(CC7CCN(Cc8ccc9c(c8)CN(C(=O)c8cc(C(C)C)c(O)cc8OC)C9)CC7)CC6)CC5)nc4c3F)c12` [Compound 152], the pEC50 was 6.00 to 7.00 in test [1] (Homo sapiens, ASPC1, 72 h); 6.00 to 7.00 in test [2] (Homo sapiens); > 7.00 in test [3] (Homo sapiens); > 7.00 in test [4]. Further, the pIC50 against KRAS(G12D)/SOS1 was > 7.00.
On to `C#Cc1c(F)ccc2cc(O)cc(-c3ncc4c(N5CC6CCC(C5)N6)nc(OCC5(CN6CCN(CC7CCN(Cc8ccc(-n9c(C(=O)NC(C)C(F)(F)F)nnc9-c9cc(C(C)C)c(O)cc9O)cc8)CC7)CC6)CC5)nc4c3F)c12` (centres unmarked) [Compound 153], for which the pEC50 in test [1] (Homo sapiens, ASPC1, 72 h) was > 7.00; in test [2] (Homo sapiens), > 7.00; in test [3] (Homo sapiens) it was > 7.00; in test [4], > 7.00. In addition, at KRAS(G12D)/SOS1, the pIC50 was > 7.00.
In the case of `C#Cc1c(F)ccc2cc(O)cc(-c3ncc4c(N5CC6CCC(C5)N6)nc(OCC5(CN6CCN(CC7CCN(Cc8ccc(-n9c(C(=O)NCC(F)(F)F)nnc9-c9cc(C(C)C)c(O)cc9O)cc8)CC7)CC6)CC5)nc4c3F)c12` [Compound 154], the pEC50 in test [1] (Homo sapiens, ASPC1, 72 h) was > 7.00; in test [2] (Homo sapiens) it was > 7.00; in test [3] (Homo sapiens), > 7.00; in test [4] it was > 7.00. At KRAS(G12D)/SOS1, the pIC50 is > 7.00.
As to `C#Cc1cccc2cc(O)cc(-c3ncc4c(N5CC6CCC(C5)N6)nc(OCC5(CN6CCN(Cc7ccc(-n8c(C(=O)NC(C)C(F)(F)F)nnc8-c8cc(C(C)C)c(O)cc8O)cc7)CC6)CC5)nc4c3F)c12` (centres unmarked) [Compound 155], the pEC50 in test [1] (Homo sapiens, ASPC1, 72 h) was 6.00 to 7.00; in test [2] (Homo sapiens), 6.00 to 7.00; in test [3] (Homo sapiens), 6.00 to 7.00; in test [4], 6.00 to 7.00. The pIC50 on KRAS(G12D)/SOS1 is > 7.00.
`C#Cc1c(F)ccc2cc(O)cc(-c3nc(OC)c4c(N5CC6CCC(C5)N6)nc(OCC5(CN6CCN(CC7CCN(Cc8ccc9c(c8)CN(C(=O)c8cc(C(C)C)c(O)cc8O)C9)CC7)CC6)CC5)nc4c3F)c12` [Compound 156]: the pEC50 in test [1] (Homo sapiens, ASPC1, 72 h) was > 7.00; in test [2] (Homo sapiens) it was 6.00 to 7.00; in test [3] (Homo sapiens), > 7.00; in test [4], > 7.00. For the same compound, the negative logarithm of the IC50 (pIC50) against KRAS(G12D)/SOS1 was > 7.00.
For the compound `C#Cc1cccc2cc(O)cc(-c3ncc4c(N5CC6CCC(C5)N6)nc(OCC5(CN6CCN(C(=O)C7CCN(Cc8ccc9c(c8)CN(C(=O)c8cc(C(C)C)c(O)cc8O)C9)CC7)CC6)CC5)nc4c3F)c12` [Compound 157], the pEC50 in test [1] (Homo sapiens, ASPC1, 72 h) was 6.00 to 7.00; in test [2] (Homo sapiens), 6.00 to 7.00; in test [3] (Homo sapiens), > 7.00; in test [4], 6.00 to 7.00. In addition, the pIC50 against KRAS(G12D)/SOS1 is > 7.00.
Turning to `C#Cc1c(F)ccc2cc(O)cc(-c3nc(OC)c4c(N5CC6CCC(C5)N6)nc(OCC5(CN6CCN(CC7CCN(Cc8ccc(-n9c(C(=O)NC(C)C(F)(F)F)nnc9-c9cc(C(C)C)c(O)cc9O)cc8)CC7)CC6)CC5)nc4c3F)c12` (centres unmarked) [Compound 158], the negative logarithm of the EC50 (pEC50) in test [1] (Homo sapiens, ASPC1, 72 h) is > 7.00; in test [2] (Homo sapiens), > 7.00; in test [3] (Homo sapiens), > 7.00; in test [4], > 7.00. For the same compound, the pIC50 at KRAS(G12D)/SOS1 is > 7.00.
As to `CC(C)c1cc(C(=O)N2Cc3ccc(CN4CCC(CN5CCN(CC6(COc7nc(N8CC9CCC(C8)N9)c8cnc(-c9cc(O)cc%10ccccc9%10)c(F)c8n7)CC6)CC5)CC4)cc3C2)c(O)cc1O` [Compound 159], the pEC50 in test [1] (Homo sapiens, ASPC1, 72 h) is 6.00 to 7.00; in test [2] (Homo sapiens), 6.00 to 7.00; in test [3] (Homo sapiens) it was 6.00 to 7.00; in test [4], 6.00 to 7.00. For the same compound, the negative logarithm of the IC50 (pIC50) on KRAS(G12D)/SOS1 was > 7.00.
As to `C#Cc1c(F)ccc2cc(O)cc(-c3ncc4c(N5CC6CCC(C5)N6)nc(CCC5(CN6CCN(C7CCN(Cc8ccc9c(c8)CN(C(=O)c8cc(C(C)C)c(O)cc8O)C9)CC7)CC6)CC5)nc4c3F)c12` [Compound 161], the pEC50 in test [1] (Homo sapiens, ASPC1, 72 h) was 6.00 to 7.00; in test [2] (Homo sapiens), 6.00 to 7.00; in test [3] (Homo sapiens) it was > 7.00; in test [4], > 7.00. Also, the negative-log IC50 (pIC50) on KRAS(G12D)/SOS1 is > 7.00.
For the compound `C#Cc1c(F)ccc2cc(O)cc(-c3ncc4c(N5CC6CCC(C5)N6)nc(OCC5(CN6CCC(C7CCN(Cc8ccc(-n9c(C(=O)NC(C)C(F)(F)F)nnc9-c9cc(C(C)C)c(O)cc9O)cc8)CC7)CC6)CC5)nc4c3F)c12` (centres unmarked) [Compound 162], the pEC50 is > 7.00 in test [1] (Homo sapiens, ASPC1, 72 h); > 7.00 in test [2] (Homo sapiens); > 7.00 in test [3] (Homo sapiens); > 7.00 in test [4]. Besides, the pIC50 against KRAS(G12D)/SOS1 was > 7.00.
`C#Cc1c(F)ccc2cc(O)cc(-c3ncc4c(N5CC6CCC(C5)N6)nc(OCC5(CN6CCC(C7CCN(Cc8ccc9c(c8)CN(C(=O)c8cc(C(C)C)c(O)cc8O)C9)CC7)CC6)CC5)nc4c3F)c12` [Compound 163]: the pEC50 in test [1] (Homo sapiens, ASPC1, 72 h) is 6.00 to 7.00; in test [2] (Homo sapiens), 6.00 to 7.00; in test [3] (Homo sapiens), > 7.00; in test [4], > 7.00. Besides, the pIC50 against KRAS(G12D)/SOS1 was > 7.00.
On to `Cc1cccc2cccc(-c3ncc4c(N5CC6CCC(C5)N6)nc(OC[C@@H]5C[C@H](N6CCN(Cc7ccc8c(c7)CN(C(=O)c7cc(C(C)C)c(O)cc7O)C8)CC6)CN5C)nc4c3F)c12` [Example 1], for which the pEC50 in test [1], in test [2], in test [3] and in test [4] was 6.00 to 7.00 throughout. In addition, the negative logarithm of the IC50 (pIC50) against KRAS(G12D)/SOS1 was 6.00 to 7.00.
